The supplement of paper PMC11579375

Legend:
Experiment in all cases: area under the viability dose-response curve (AUC) (AUC (arbitrary units, max 500 = no viability loss)); higher = less sensitive (higher viability)
Conditions in all cases: exposure time: 120 h; concentration range: 0.1 nM - 10 µM, 6 doses
27F1 = system: 27F1 (fetal-I hepatoblastoma organoid with intermediate liver markers)
Method: (§1)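 Patient-derived hepatoblastoma tumor organoids (about 50 organoids per well, 384-well plates, medium with 5% BME) were treated with the PMC pediatric cancer drug library. Each drug was tested in duplicate at 6 concentrations (0.1 nM to 10 µM, 10-fold steps).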

3E = system: 3E (embryonal-type hepatoblastoma organoid)
Method: as §1

17E = system: 17E (embryonal-type hepatoblastoma organoid)
Method: as §1

96F1 = system: 96F1 (fetal-I hepatoblastoma organoid with intermediate liver markers)
Method: as §1

17F1 = system: 17F1 (fetal-I hepatoblastoma organoid with intermediate liver markers)
Method: as §1

8F1 = system: 8F1 (fetal-I hepatoblastoma organoid with intermediate liver markers)
Method: as §1

13E = system: 13E (embryonal-type hepatoblastoma organoid)
Method: as §1

135F2 = system: 135F2 (fetal-II hepatoblastoma organoid with high liver markers)
Method: as §1

13F2 = system: 13F2 (fetal-II hepatoblastoma organoid with high liver markers)
Method: as §1

22E = system: 22E (embryonal-type hepatoblastoma organoid)
Method: as §1

10F2 = system: 10F2 (fetal-II hepatoblastoma organoid with high liver markers)
Method: as §1

Row | Structure (SMILES) | area under the viability dose-response curve (27F1) | area under the viability dose-response curve (3E) | area under the viability dose-response curve (17E) | area under the viability dose-response curve (96F1) | area under the viability dose-response curve (17F1) | area under the viability dose-response curve (8F1) | area under the viability dose-response curve (13E) | area under the viability dose-response curve (135F2) | area under the viability dose-response curve (13F2) | area under the viability dose-response curve (22E) | area under the viability dose-response curve (10F2)
1 | COc1ccc(-c2ccc3c(N4CCOC[C@@H]4C)nc(N4CCOC[C@@H]4C)nc3n2)cc1CO [AZD8055] | 468 | 316 | 331 | 445 | 456 | 466 | 366 | 342 | 278 | 396 | 259
2 | CCN1CCN(Cc2ccc(Nc3ncc(F)c(-c4cc(F)c5nc(C)n(C(C)C)c5c4)n3)nc2)CC1 [Abemaciclib] | 402 | 264 | 284 | 411 | 452 | 448 | 408 | 360 | 314 | 395 | 314
3 | C=CCn1c(=O)c2cnc(Nc3ccc(N4CCN(C)CC4)cc3)nc2n1-c1cccc(C(C)(C)O)n1 [Adavosertib] | 386 | 335 | 336 | 361 | 383 | 438 | 404 | 353 | 354 | 423 | 328
4 | CN(C)C/C=C/C(=O)Nc1cc2c(Nc3ccc(F)c(Cl)c3)ncnc2cc1O[C@H]1CCOC1 [Afatinib] | 342 | 456 | 491 | 352 | 408 | 493 | 472 | 442 | 271 | 489 | 253
5 | CCc1cc2c(cc1N1CCC(N3CCOCC3)CC1)C(C)(C)c1[nH]c3cc(C#N)ccc3c1C2=O [Alectinib] | > 500 | 452 | > 500 | > 500 | 499 | 496 | 498 | 499 | 473 | 479 | > 500
6 | COc1cc(Nc2ncc3c(n2)-c2ccc(Cl)cc2C(c2c(F)cccc2OC)=NC3)ccc1C(=O)O [Alisertib] | 436 | 328 | 339 | 416 | 494 | 473 | 381 | 369 | 310 | 382 | 325
7 | O=C(/C=C/c1cccc(S(=O)(=O)Nc2ccccc2)c1)NO [Belinostat] | 418 | 355 | 367 | 409 | 437 | 434 | 401 | 386 | 359 | 425 | 365
8 | Cc1ccc2c(Nc3cccc(Cl)c3F)nccc2c1NC(=O)c1csc2c(N)ncnc12 [Belvarafenib] | 484 | 497 | 499 | > 500 | > 500 | > 500 | > 500 | 389 | 407 | 474 | 334
9 | CNCc1ccc(-c2cc(-c3nc(-c4ccc(S(=O)(=O)C(C)C)cc4)cnc3N)on2)cc1 [Berzosertib] | 498 | 391 | 444 | 459 | > 500 | 499 | 461 | 391 | 401 | 473 | 411
10 | Cn1cnc2c(F)c(Nc3ccc(Br)cc3F)c(C(=O)NOCCO)cc21 [Binimetinib] | 499 | > 500 | 424 | 481 | 458 | > 500 | 490 | 396 | 379 | 489 | 343
11 | Cc1sc2c(c1C)C(c1ccc(Cl)cc1)=N[C@@H](CC(=O)Nc1ccc(O)cc1)c1nnc(C)n1-2 [Birabresib] | 482 | 358 | 395 | 478 | 461 | 473 | 410 | 354 | 318 | 399 | 390
12 | CC[C@H](NC(=O)[C@H](C)NC)C(=O)N1C[C@@H](O)C[C@H]1Cc1c(-c2[nH]c3cc(F)ccc3c2C[C@@H]2C[C@H](O)CN2C(=O)[C@H](CC)NC(=O)[C@H](C)NC)[nH]c2cc(F)ccc12 [Birinapant] | > 500 | 237 | 434 | 480 | 467 | 468 | 473 | 483 | 483 | 204 | 425
13 | CC(C)C[C@H](NC(=O)[C@H](Cc1ccccc1)NC(=O)c1cnccn1)B(O)O [Bortezomib] | 200 | 133 | 173 | 210 | 170 | 207 | 179 | 191 | 182 | 193 | 189
14 | COc1cc(Nc2c(C#N)cnc3cc(OCCCN4CCN(C)CC4)c(OC)cc23)c(Cl)cc1Cl [Bosutinib] | 422 | 435 | 429 | 433 | 469 | 450 | 447 | 459 | 397 | 471 | 429
15 | COc1cc(N2CCC(N3CCN(C)CC3)CC2)ccc1Nc1ncc(Cl)c(Nc2ccccc2P(C)(C)=O)n1 [Brigatinib] | 420 | 349 | 398 | 427 | 426 | 454 | 402 | 392 | 388 | 381 | 399
16 | Nc1cc(C(F)(F)F)c(-c2cc(N3CCOCC3)nc(N3CCOCC3)n2)cn1 [Buparlisib] | 436 | 383 | 416 | 449 | 454 | 447 | 413 | 440 | 413 | 425 | 385
17 | Cc1sc2c(c1C)C(c1ccc(Cl)cc1)=N[C@@H](CC(N)=O)c1nnc(C)n1-2 [CPI-203] | 468 | 342 | 373 | 473 | 467 | 447 | 410 | 334 | 336 | 413 | 335
